Assay results: patent publication US9688654B2, “Compounds inhibiting leucine-rich repeat kinase enzyme activity” (Merck Sharp & Dohme Corp., priority 2013, dated 2017)

Assays:
Format in all cases: biochemical
[1] = biological target: T1, LRRK2 (G2019S mutation, GST-LRRK2 (amino acids 970-2527)) (Homo sapiens, UniProt Q5S007, G2019S); test: LRRK2 Km ATP LanthaScreen Assay; conditions: mean IC50
T1 construct: GST-LRRK2 (amino acids 970-2527); GST (N); purchased Life Technologies Corporation
Description: Unless otherwise noted, all LRRK2 IC50 data presented in tables refers to the LRRK2 Km ATP LanthaScreen™ Assay that is described in the Biological Assay section.
The data presented for the 5 mM and Km ATP LanthaScreen™ Assay represents mean IC50 values based on several test results and may have reasonable. deviations depending on the specific conditions and reagents used. Reagents for the LRRK2 5 mM and Km ATP LanthaScreen™ Assay were purchased from Life Technologies Corporation.
• a) 400 nl of a 1:2.15 serial dilution of test compound (98 μM top assay concentration) is spotted via Labcyte Echo to certain wells in a 384 well black, untreated plate. Control wells contain 400 nl of either DMSO or 400 nl of a known inhibitor in DMSO. • b) 10 μl of a 2.5 nM LRRK2 (G2019S mutation, GST-LRRK2 (amino acids 970-2527)) enzyme solution in 1× assay buffer (50 mM Tris pH 8.5, 10 mM MgCl2, 0.01% Brij-35, 1.0 mM EGTA, 2 mM DTT, 0.05 mM NaVO4) is added to all wells. • c) A 30 minute room temperature incubation is followed by addition of 10 μl […]) After a 35 minute room temperature incubation, 20 μl of TR-FRET Dilution Buffer (Invitrogen PV3756B) containing 4 nM Tb-labeled anti-phospho LRRKtide antibody and 20 mM EDTA is added to all wells. • e) Plates are incubated at room temperature for 1 hour and read on an Envision™ multi-mode plate reader with LanthaScreen™ settings. Results are analysed using Assay Data Analyzer. […] Results are analysed using Assay Data Analyzer.

MAPK8 (JNK1) = biological target: T2, MAPK8 (JNK1) (Homo sapiens, UniProt P45983); test: Kinase selectivity, Z'-LYTE platform; conditions: 1 micromolar compound, read-out: percent inhibition MAPK8 (JNK1)
T2 construct: purchased Life Technologies Corporation
T2 sequence (P45983 whole entry): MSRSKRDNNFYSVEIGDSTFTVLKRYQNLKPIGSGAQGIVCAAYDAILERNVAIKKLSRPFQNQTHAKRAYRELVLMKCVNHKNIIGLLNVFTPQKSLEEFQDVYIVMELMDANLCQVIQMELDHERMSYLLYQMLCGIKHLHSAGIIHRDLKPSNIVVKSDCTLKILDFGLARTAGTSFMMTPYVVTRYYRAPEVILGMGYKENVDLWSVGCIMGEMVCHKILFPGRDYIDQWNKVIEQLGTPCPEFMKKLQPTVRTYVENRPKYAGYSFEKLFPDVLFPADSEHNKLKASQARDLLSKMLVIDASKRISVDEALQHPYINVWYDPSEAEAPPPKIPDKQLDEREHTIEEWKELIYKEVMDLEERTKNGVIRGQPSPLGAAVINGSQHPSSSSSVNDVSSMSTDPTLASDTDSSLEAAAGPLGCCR

JAK3 = biological target: T3, JAK3 (Homo sapiens, UniProt P52333); test: Kinase selectivity, Z'-LYTE platform; conditions: 1 micromolar compound, read-out: percent inhibition JAK3
T3 construct: purchased Life Technologies Corporation
T3 sequence (P52333 1-1124): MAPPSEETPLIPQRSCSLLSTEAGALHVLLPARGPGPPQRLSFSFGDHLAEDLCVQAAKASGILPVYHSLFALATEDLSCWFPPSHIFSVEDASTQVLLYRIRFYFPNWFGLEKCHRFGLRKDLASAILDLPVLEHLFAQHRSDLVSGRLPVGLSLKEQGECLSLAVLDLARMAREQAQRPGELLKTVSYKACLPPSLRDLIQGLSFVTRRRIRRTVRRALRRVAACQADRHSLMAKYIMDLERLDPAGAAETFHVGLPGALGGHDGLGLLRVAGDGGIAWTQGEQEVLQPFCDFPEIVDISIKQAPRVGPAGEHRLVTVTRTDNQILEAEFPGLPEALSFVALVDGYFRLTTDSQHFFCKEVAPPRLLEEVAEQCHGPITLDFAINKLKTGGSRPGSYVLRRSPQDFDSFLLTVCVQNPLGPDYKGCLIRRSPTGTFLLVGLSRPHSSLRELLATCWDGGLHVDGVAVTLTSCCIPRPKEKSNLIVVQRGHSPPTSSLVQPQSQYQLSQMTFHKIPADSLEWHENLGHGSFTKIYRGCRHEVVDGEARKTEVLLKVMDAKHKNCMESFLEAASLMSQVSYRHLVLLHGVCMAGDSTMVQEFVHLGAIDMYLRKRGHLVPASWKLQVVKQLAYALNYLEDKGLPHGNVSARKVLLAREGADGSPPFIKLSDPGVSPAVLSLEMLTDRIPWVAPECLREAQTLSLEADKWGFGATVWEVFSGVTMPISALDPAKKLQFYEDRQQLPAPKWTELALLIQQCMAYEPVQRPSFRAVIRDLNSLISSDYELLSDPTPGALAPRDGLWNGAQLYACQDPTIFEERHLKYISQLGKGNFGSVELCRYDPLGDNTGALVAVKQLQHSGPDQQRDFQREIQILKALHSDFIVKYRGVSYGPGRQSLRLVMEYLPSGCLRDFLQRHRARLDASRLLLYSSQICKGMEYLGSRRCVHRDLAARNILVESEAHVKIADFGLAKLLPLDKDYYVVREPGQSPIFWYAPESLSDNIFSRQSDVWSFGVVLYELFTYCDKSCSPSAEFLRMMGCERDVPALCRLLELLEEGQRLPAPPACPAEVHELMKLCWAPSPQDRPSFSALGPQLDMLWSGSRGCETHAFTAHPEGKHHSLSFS

IRAK1 = biological target: T4, IRAK1 (Homo sapiens, UniProt P51617); test: Kinase selectivity, Adapta platform; conditions: 1 micromolar compound, read-out: percent inhibition IRAK1
T4 construct: purchased Life Technologies Corporation
T4 sequence (P51617 whole entry): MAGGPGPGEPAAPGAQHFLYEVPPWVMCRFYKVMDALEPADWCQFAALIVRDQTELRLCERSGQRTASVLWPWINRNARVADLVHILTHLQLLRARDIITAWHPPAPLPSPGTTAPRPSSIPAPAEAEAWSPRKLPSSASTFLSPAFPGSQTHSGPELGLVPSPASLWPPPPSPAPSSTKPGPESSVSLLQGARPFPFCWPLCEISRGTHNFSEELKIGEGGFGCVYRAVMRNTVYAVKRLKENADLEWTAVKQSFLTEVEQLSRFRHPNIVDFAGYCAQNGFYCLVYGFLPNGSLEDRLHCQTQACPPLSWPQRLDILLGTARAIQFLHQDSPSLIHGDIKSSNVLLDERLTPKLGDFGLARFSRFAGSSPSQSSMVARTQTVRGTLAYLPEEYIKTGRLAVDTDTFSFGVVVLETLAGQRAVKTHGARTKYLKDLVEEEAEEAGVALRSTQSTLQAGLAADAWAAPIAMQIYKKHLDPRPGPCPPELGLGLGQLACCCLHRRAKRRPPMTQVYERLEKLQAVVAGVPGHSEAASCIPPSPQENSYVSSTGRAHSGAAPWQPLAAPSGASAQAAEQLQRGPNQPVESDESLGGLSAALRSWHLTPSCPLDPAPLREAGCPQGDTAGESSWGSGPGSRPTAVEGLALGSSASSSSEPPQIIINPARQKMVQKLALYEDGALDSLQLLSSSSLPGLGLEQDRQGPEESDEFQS

MAPK1 (ERK2) = biological target: T5, MAPK1 (ERK2) (Homo sapiens, UniProt P28482); test: Kinase selectivity, Z'-LYTE platform; conditions: 1 micromolar compound, read-out: percent inhibition MAPK1 (ERK2)
T5 construct: purchased Life Technologies Corporation

BRAF V599E = biological target: T6, BRAF V599E (Homo sapiens, UniProt P15056, V600E); test: Kinase selectivity, Z'-LYTE platform; conditions: 1 micromolar compound, read-out: percent inhibition BRAF V599E
T6 construct: purchased Life Technologies Corporation
T6 sequence (P15056 whole entry V600E): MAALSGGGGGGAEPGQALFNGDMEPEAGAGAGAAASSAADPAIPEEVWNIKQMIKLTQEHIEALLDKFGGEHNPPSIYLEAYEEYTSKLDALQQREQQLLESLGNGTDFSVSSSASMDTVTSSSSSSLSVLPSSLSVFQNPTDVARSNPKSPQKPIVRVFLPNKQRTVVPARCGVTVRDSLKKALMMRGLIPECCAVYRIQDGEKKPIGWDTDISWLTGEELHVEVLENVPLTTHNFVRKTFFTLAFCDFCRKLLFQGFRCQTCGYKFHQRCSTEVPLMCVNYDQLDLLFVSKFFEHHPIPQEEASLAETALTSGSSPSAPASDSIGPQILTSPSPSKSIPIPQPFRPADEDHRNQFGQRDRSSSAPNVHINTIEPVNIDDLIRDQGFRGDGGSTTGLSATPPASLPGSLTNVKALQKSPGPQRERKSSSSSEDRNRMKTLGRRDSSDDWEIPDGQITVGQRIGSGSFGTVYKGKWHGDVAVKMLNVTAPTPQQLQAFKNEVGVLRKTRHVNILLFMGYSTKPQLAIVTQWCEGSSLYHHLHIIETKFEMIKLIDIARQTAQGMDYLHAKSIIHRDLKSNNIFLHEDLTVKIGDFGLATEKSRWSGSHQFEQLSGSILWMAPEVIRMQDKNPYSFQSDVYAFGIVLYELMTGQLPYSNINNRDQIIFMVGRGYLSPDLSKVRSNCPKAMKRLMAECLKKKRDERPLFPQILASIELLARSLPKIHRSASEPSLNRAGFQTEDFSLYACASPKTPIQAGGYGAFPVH

DYRK1A = biological target: T7, DYRK1A (Homo sapiens, UniProt Q13627); test: Kinase selectivity, Z'-LYTE platform; conditions: 1 micromolar compound, read-out: percent inhibition DYRK1A
T7 construct: purchased Life Technologies Corporation

CLK2 = biological target: T8, CLK2 (Homo sapiens, UniProt P49760); test: Kinase selectivity, Z'-LYTE platform; conditions: 1 micromolar compound, read-out: percent inhibition CLK2
T8 construct: purchased Life Technologies Corporation
T8 sequence (P49760 whole entry): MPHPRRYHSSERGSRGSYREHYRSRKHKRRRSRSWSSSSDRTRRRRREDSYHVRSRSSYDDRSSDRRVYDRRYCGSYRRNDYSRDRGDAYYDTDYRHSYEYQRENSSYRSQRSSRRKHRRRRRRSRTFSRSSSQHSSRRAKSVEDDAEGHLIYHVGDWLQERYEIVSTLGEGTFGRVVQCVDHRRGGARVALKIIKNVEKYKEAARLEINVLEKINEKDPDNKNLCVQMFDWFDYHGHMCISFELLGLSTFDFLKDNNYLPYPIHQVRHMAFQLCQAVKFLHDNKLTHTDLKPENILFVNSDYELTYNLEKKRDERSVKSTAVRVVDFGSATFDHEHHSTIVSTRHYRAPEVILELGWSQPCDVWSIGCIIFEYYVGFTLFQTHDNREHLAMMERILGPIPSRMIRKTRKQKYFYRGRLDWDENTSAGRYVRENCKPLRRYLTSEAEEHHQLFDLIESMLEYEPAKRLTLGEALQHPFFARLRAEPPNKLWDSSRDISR

CHEK2 (CHK2) = biological target: T9, CHEK2 (CHK2) (Homo sapiens, UniProt O96017); test: Kinase selectivity, Z'-LYTE platform; conditions: 1 micromolar compound, read-out: percent inhibition CHEK2 (CHK2)
T9 construct: purchased Life Technologies Corporation

CDK1/cyclin B = biological target: T10, CDK1/cyclin B (Homo sapiens, UniProt P06493); test: Kinase selectivity, Z'-LYTE platform; conditions: 1 micromolar compound, read-out: percent inhibition CDK1/cyclin B
T10 construct: purchased Life Technologies Corporation
T10 sequence (P06493 whole entry): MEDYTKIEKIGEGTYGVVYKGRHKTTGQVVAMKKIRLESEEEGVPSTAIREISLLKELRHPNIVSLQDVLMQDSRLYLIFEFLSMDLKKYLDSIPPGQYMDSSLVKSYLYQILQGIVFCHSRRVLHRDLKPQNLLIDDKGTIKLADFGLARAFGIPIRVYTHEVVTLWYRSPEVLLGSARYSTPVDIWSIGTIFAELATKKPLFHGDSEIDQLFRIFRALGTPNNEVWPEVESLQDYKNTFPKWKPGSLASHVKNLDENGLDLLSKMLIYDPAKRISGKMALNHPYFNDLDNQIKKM
T10 sequence (P14635 whole entry partner): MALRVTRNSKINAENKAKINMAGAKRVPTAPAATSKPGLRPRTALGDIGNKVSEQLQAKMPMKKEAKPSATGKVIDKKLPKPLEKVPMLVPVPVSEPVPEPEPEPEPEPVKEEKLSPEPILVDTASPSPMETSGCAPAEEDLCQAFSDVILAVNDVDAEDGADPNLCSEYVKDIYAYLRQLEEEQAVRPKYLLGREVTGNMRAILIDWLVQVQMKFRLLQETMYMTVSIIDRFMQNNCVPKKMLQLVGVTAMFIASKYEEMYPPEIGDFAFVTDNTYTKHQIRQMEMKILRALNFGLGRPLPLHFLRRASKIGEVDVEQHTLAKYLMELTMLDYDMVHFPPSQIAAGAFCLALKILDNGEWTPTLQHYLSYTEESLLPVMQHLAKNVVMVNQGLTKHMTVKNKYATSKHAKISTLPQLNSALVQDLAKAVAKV

AURKB (Aurora B) = biological target: T11, AURKB (Aurora B) (Homo sapiens, UniProt Q96GD4); test: Kinase selectivity, Z'-LYTE platform; conditions: 1 micromolar compound, read-out: percent inhibition AURKB (Aurora B)
T11 construct: purchased Life Technologies Corporation
T11 sequence (Q96GD4 whole entry): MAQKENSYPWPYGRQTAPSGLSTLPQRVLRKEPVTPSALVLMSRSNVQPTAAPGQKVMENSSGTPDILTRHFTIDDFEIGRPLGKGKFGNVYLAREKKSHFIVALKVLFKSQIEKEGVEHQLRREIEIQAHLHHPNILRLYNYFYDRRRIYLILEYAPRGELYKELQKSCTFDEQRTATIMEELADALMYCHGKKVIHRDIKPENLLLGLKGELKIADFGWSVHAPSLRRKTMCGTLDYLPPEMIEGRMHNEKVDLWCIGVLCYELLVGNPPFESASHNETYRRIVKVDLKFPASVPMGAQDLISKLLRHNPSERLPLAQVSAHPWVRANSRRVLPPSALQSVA

T1 sequence (Q5S007 970-2527 G2019S): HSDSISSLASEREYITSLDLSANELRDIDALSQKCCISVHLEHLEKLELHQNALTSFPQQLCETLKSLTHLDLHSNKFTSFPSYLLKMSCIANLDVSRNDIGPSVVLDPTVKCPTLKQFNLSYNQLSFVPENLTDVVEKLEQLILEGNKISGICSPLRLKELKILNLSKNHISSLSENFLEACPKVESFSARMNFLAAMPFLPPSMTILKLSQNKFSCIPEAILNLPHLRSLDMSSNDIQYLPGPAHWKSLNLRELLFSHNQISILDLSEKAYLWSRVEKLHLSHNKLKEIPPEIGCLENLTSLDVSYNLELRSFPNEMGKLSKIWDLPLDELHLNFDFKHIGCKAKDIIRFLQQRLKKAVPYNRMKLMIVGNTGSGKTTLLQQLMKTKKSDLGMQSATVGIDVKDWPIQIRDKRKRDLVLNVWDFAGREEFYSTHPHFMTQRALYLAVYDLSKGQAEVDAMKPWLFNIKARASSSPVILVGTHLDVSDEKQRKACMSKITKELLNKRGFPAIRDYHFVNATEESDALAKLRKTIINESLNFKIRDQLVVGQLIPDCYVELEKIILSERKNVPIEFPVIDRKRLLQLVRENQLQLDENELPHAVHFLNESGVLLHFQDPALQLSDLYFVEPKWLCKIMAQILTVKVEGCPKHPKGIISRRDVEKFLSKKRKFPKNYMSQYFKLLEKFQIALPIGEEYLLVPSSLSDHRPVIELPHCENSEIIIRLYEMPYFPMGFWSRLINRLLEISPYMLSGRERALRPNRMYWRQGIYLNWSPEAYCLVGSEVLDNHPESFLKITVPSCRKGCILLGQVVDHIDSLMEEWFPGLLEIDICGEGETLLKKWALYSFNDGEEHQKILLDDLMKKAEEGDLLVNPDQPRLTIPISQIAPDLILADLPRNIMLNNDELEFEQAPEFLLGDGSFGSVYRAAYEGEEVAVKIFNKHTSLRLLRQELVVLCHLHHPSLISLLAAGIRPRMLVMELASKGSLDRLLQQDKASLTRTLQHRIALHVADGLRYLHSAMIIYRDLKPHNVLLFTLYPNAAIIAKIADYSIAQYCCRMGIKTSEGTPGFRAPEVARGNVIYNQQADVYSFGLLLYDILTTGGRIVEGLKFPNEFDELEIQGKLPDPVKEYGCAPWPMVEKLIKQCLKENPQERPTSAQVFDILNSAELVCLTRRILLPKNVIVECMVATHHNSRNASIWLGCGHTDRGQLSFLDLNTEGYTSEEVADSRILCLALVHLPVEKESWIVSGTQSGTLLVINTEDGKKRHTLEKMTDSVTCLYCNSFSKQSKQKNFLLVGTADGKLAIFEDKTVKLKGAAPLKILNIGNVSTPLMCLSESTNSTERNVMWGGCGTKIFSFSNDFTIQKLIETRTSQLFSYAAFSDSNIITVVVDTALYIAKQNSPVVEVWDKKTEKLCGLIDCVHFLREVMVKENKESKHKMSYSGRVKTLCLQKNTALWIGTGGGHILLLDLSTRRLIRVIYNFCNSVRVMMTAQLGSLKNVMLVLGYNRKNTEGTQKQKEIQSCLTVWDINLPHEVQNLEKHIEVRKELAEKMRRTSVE

c1cc(-c2n[nH]c3ccc(OC4CC4)cc23)cc(N2CCOCC2)n1 [Example 1]
IC50 [1]: 0.04 µM

c1cc(-c2n[nH]c3ccc(OC4COC4)cc23)cc(N2CCOCC2)n1 [Example 2]
IC50 [1]: 0.02 µM

Fc1cc2[nH]nc(-c3ccnc(N4CCOCC4)c3)c2cc1OC1CC1 [Example 3]
IC50 [1]: 0.0012 µM

CC1(Oc2ccc3[nH]nc(-c4ccnc(N5CC6CCC(C5)O6)c4)c3c2)CC1 [Example 4]
IC50 [1]: 0.023 µM

CC1(Oc2ccc3[nH]nc(-c4ccnc(N5C6CCC5COC6)c4)c3c2)CC1 [Example 5]
IC50 [1]: 0.067 µM

c1cc(-c2n[nH]c3ccc(OC4CC4)cc23)cc(N2CCOC3(CC3)C2)n1 [Example 6]
IC50 [1]: 0.017 µM

FC1(F)CCN(c2cc(-c3n[nH]c4ccc(OC5CC5)cc34)ccn2)CC1 [Example 8]
IC50 [1]: 0.03 µM

CO[C@H]1CN(c2cc(-c3n[nH]c4ccc(OC5CC5)cc34)ccn2)C[C@@H]1O [Example 10]
IC50 [1]: 0.023 µM

O=S1(=O)CC2CC(C1)N(c1cc(-c3n[nH]c4ccc(OC5CC5)cc34)ccn1)C2 (stereo not drawn) [Example 11]
IC50 [1]: 0.111 µM

c1cc(-c2n[nH]c3ccc(OC4CC4)cc23)cc(N2CCC(n3cncn3)CC2)n1 [Example 12]
IC50 [1]: 0.01 µM

c1cnn(C2CCN(c3cc(-c4n[nH]c5ccc(OC6CC6)cc45)ccn3)CC2)c1 [Example 13]
IC50 [1]: 0.016 µM

F[C@H]1CN(c2cc(-c3n[nH]c4ccc(OC5CC5)cc34)ccn2)C[C@@H]1F [Example 14]
IC50 [1]: 0.019 µM

[O-][S+]1CCCN(c2cc(-c3n[nH]c4ccc(OC5CC5)cc34)ccn2)CC1 (stereo not drawn) [Example 15]
IC50 [1]: 0.044 µM

O=S1(=O)CCCN(c2cc(-c3n[nH]c4ccc(OC5CC5)cc34)ccn2)CC1 [Example 16]
IC50 [1]: 0.071 µM

CS(=O)(=O)N1CCCN(c2cc(-c3n[nH]c4ccc(OC5CC5)cc34)ccn2)CC1 [Example 17]
IC50 [1]: 0.051 µM

c1cc(-c2n[nH]c3ccc(OC4CC4)cc23)cc(N2CCc3oc(C4CC4)nc3C2)n1 [Example 19]
IC50 [1]: 0.054 µM

FC1(F)CCCN(c2cc(-c3n[nH]c4ccc(OC5CC5)cc34)ccn2)C1 [Example 20]
IC50 [1]: 0.022 µM

FC1(F)CCN(c2cc(-c3n[nH]c4ccc(OC5CC5)cc34)ccn2)C1 [Example 21]
IC50 [1]: 0.019 µM

CO[C@H]1CCN(c2cc(-c3n[nH]c4ccc(OC5CC5)cc34)ccn2)C1 [Example 22]
IC50 [1]: 0.017 µM

O[C@H]1CCN(c2cc(-c3n[nH]c4ccc(OC5CC5)cc34)ccn2)C1 [Example 24]
IC50 [1]: 0.029 µM

FC1(F)CN(c2cc(-c3n[nH]c4ccc(OC5CC5)cc34)ccn2)C1 [Example 25]
IC50 [1]: 0.04 µM

CC1(Oc2ccc3[nH]nc(-c4ccnc(N5CCOCC5)c4)c3c2)CC1 [Example 27]
inhibition at 1 µM (MAPK8 (JNK1)): 61%
inhibition at 1 µM (JAK3): 56%
inhibition at 1 µM (IRAK1): 18%
inhibition at 1 µM (MAPK1 (ERK2)): 23%
inhibition at 1 µM (BRAF V599E): 29%
IC50 [1]: 0.0006 µM
inhibition at 1 µM (DYRK1A): 6%
inhibition at 1 µM (CLK2): 46%
inhibition at 1 µM (CHEK2 (CHK2)): 14%
inhibition at 1 µM (CDK1/cyclin B): 33%
inhibition at 1 µM (AURKB (Aurora B)): 15%

C[C@H]1CN(c2cc(-c3n[nH]c4ccc(OC5(C)CC5)cc34)ccn2)CCO1 [Example 28]
inhibition at 1 µM (MAPK8 (JNK1)): 58%
inhibition at 1 µM (JAK3): 49%
inhibition at 1 µM (IRAK1): -5%
inhibition at 1 µM (MAPK1 (ERK2)): 23%
inhibition at 1 µM (BRAF V599E): 19%
IC50 [1]: 0.0006 µM
inhibition at 1 µM (DYRK1A): 2%
inhibition at 1 µM (CLK2): 42%
inhibition at 1 µM (CHEK2 (CHK2)): 4%
inhibition at 1 µM (CDK1/cyclin B): 25%
inhibition at 1 µM (AURKB (Aurora B)): 11%

C[C@@H]1CN(c2cc(-c3n[nH]c4ccc(OC5(C)CC5)cc34)ccn2)CCO1 [Example 29]
inhibition at 1 µM (MAPK8 (JNK1)): 54%
inhibition at 1 µM (JAK3): 46%
inhibition at 1 µM (IRAK1): 8%
inhibition at 1 µM (MAPK1 (ERK2)): 18%
inhibition at 1 µM (BRAF V599E): 18%
IC50 [1]: 0.0006 µM
inhibition at 1 µM (DYRK1A): 4%
inhibition at 1 µM (CLK2): 53%
inhibition at 1 µM (CHEK2 (CHK2)): 2%
inhibition at 1 µM (CDK1/cyclin B): 26%
inhibition at 1 µM (AURKB (Aurora B)): 11%

C[C@@H]1CN(c2cc(-c3n[nH]c4ccc(OC5(C)CC5)cc34)ccn2)C[C@H](C)O1 [Example 30]
inhibition at 1 µM (MAPK8 (JNK1)): 39%
inhibition at 1 µM (JAK3): 37%
inhibition at 1 µM (IRAK1): -17%
inhibition at 1 µM (MAPK1 (ERK2)): 10%
inhibition at 1 µM (BRAF V599E): 5%
IC50 [1]: 0.0009 µM
inhibition at 1 µM (DYRK1A): 3%
inhibition at 1 µM (CLK2): 49%
inhibition at 1 µM (CHEK2 (CHK2)): 8%
inhibition at 1 µM (CDK1/cyclin B): 9%
inhibition at 1 µM (AURKB (Aurora B)): 6%

CC1(Oc2ccc3[nH]nc(-c4ccnc(N5CCN(S(C)(=O)=O)CC5)c4)c3c2)CC1 [Example 31]
IC50 [1]: 0.0006 µM

CN1CCN(c2cc(-c3n[nH]c4ccc(OC5(C)CC5)cc34)ccn2)CC1 [Example 32]
IC50 [1]: 0.0006 µM

CN1CCN(c2cc(-c3n[nH]c4ccc(OC5(C)CC5)cc34)ccn2)CC1=O [Example 33]
IC50 [1]: 0.001 µM

C[C@H]1[C@H](O)[C@@H](O)CN1c1cc(-c2n[nH]c3ccc(OC4(C)CC4)cc23)ccn1 [Example 34]
IC50 [1]: 0.0007 µM

C[C@H]1[C@H](N)[C@@H](O)CN1c1cc(-c2n[nH]c3ccc(OC4(C)CC4)cc23)ccn1 [Example 35]
IC50 [1]: 0.0011 µM

CC1(Oc2ccc3[nH]nc(-c4ccnc(N5CC[C@@H](N)C5)c4)c3c2)CC1 [Example 36]
IC50 [1]: 0.002 µM

CC1(Oc2ccc3[nH]nc(-c4ccnc(N5CC[C@H](N)C5)c4)c3c2)CC1 [Example 37]
IC50 [1]: 0.0026 µM
